Patent US6872745B2, “Antipicornaviral compounds and compositions, their pharmaceutical uses, and materials for their synthesis” (Agouron Pharmaceuticals, Inc., priority 2000, dated 2005)

What was measured:
[1] = biological target: T1, rhinovirus 3C protease, serotype 14 (Human rhinovirus 14, UniProt P03303); experiment: Inhibition of rhinovirus 3C protease (FRET assay, enzyme start); type: biochemical; conditions: HRV-14 3C protease, progress curves, read-out: Kobs/I
T1 construct: Recombinant rhinovirus 3C proteases; made in house
Procedure: Stock solutions (50 mM, in DMSO) of various compounds were prepared; dilutions were in the same solvent. Recombinant rhinovirus 3C proteases (see Birch et al., “Purification of recombinant human rhinovirus 14 3C protease expressed in Escherichia coli,” Protein Expr. Pur. (1995), vol. 6(5), 609-618) from serotypes 14, 16, and 2 were prepared by the following standard chromatographic procedures: (1) ion exchange using Q Sepharose Fast Flow from Pharmacia; (2) affinity chromatography using Affi-Gel Blue from Biorad; and (3) sizing using Sephadex G-100 from Pharmacia. Each assay sample contained 2% DMSO, 50 mM tris pH 7.6, 1 mM EDTA, a test compound at the indicated concentration, approximately 1 μM substrate, and 50-100 nM protease. The kobs/I values were obtained from reactions initiated by addition of enzyme rather than substrate. RVP activity was measured in the fluorescence resonance energy transfer assay. The substrate was (N-terminal) DABCYL-(Gly-Arg-Ala-Val-Phe-Gln-Gly-Pro-Val-Gly)-EDANS. In the uncleaved peptide, the EDANS fluorescence was quenched by the proximal DABCYL moiety. When the peptide was cleaved, the quenching was relieved, and activity was measured as an increase in fluorescence signal. The tabulated data in the column designated kobs/[I] were measured from progress curves in enzyme start experiments.

HRV-14 = experiment: Antirhinoviral H1-HeLa cell culture assay (XTT cell protection); type: cell-based, human rhinovirus; conditions: Rhinovirus B, HRV14, H1-HeLa, HRV-14, H1-HeLa cells
Procedure: (§1) In this cell protection assay, the ability of compounds to protect cells against HRV infection was measured by the XTT dye reduction method, which is described in Weislow et al., J. Natl. Cancer Inst. (1989), vol. 81, 577-586. H1-HeLa cells were infected with HRV-14 at a multiplicity of infection (m.o.i.) of 0.13 (virus particles/cell) or mock-infected with medium only. Infected or mock-infected cells were resuspended at 8×10^5 cells per ml, and incubated with appropriate concentrations of the compounds to be tested. Two days later, XTT/PMS was added to test plates and the amount of formazan produced was quantified spectrophotometrically at 450/650 nm. The EC50 value was calculated as the concentration of compound that increased the percentage of formazan production in compound-treated, virus-infected cells to 50% of that produced by compound-free, mock-infected cells. The 50% cytotoxic dose (CC50) was calculated as the concentration of compound that decreased the percentage of formazan produced in compound-treated, mock-infected cells to 50% of that produced by compound-free, mock-infected cells. The therapeutic index (TI) was calculated by dividing the CC50 value by the EC50 value.
(§2) All strains of human rhinovirus (HRV) for use in this assay were purchased from American Type Culture Collection (ATCC), except for HRV serotype-14 (produced from the infectious cDNA clone constructed by Dr. Robert Rueckert, Institute for Molecular Virology, University of Wisconsin, Madison, Wis.). HRV stocks were propagated and viral assays were performed in H1-HeLa cells (ATCC). Cells were grown in minimal essential medium with 10% fetal bovine serum, available from Life Technologies (Gaithersburg, Md.).

HRV-1A = experiment: as above; type: cell-based, human rhinovirus; conditions: Rhinovirus A, HRV1A, H1-HeLa cells
Procedure: as §1, §2

HRV-10 = experiment: as above; type: cell-based; conditions: Human rhinovirus sp., HRV10; HRV-10, H1-HeLa cells
Procedure: as §1, §2

[2] = Cytotoxicity in mock-infected cells of the antirhinoviral assay (XTT); type: cell-based; conditions: human, H1-HeLa cells
Procedure: as §1, §2

H1-HeLa cells = experiment: as above; type: cell-based
Procedure: as §1, §2

HRV-25 = experiment: Antirhinoviral H1-HeLa cell culture assay (XTT cell protection); type: cell-based; conditions: Human rhinovirus sp., HRV25; HRV-25, H1-HeLa cells
Procedure: as §1, §2

HRV-39 = experiment: as above; type: cell-based; conditions: Human rhinovirus sp., HRV39; HRV-39, H1-HeLa cells
Procedure: as §1, §2

HRV-3 = experiment: as above; type: cell-based; conditions: Human rhinovirus sp., HRV3; HRV-3, H1-HeLa cells
Procedure: as §1, §2

HRV-9 = experiment: as above; type: cell-based; conditions: Human rhinovirus sp., HRV9; HRV-9, H1-HeLa cells
Procedure: as §1, §2

HRV-2 = experiment: as above; type: cell-based, human rhinovirus; conditions: Rhinovirus A, HRV2; HRV-2, H1-HeLa cells
Procedure: as §1, §2

HRV-16 = experiment: as above; type: cell-based; conditions: Human rhinovirus sp., HRV16; HRV-16, H1-HeLa cells
Procedure: as §1, §2

HRV-87 = experiment: as above; type: cell-based; conditions: Human rhinovirus sp., HRV87; HRV-87, H1-HeLa cells
Procedure: as §1, §2

T1 sequence (P03303 1538-1719): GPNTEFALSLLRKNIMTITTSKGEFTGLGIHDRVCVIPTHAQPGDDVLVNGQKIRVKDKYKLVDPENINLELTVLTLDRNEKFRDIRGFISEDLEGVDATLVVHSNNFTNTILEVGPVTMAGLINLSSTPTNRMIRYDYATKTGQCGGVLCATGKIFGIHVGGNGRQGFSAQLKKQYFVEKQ

Row | SMILES | kinact/KI [1] [M⁻¹ s⁻¹] | EC50 (HRV-14) [nM] | EC50 (HRV-1A) [nM] | EC50 (HRV-10) [nM] | CC50 at 2 days ([2]; table line HRV-14) [nM] | CC50 (H1-HeLa cells; table line HRV-1A) [nM] | CC50 (H1-HeLa cells; table line HRV-10) [nM] | EC50 (HRV-25) [nM] | EC50 (HRV-39) [nM] | EC50 (HRV-3) [nM] | EC50 (HRV-9) [nM] | CC50 (H1-HeLa cells; table line HRV-3) [nM] | CC50 (H1-HeLa cells; table line HRV-9) [nM] | CC50 (H1-HeLa cells; table line HRV-25) [nM] | CC50 (H1-HeLa cells; table line HRV-39) [nM] | EC50 (HRV-2) [nM] | EC50 (HRV-16) [nM] | EC50 (HRV-87) [nM] | CC50 at 2 days ([2]; table line HRV-1A) [nM] | CC50 (H1-HeLa cells; table line HRV-2) [nM] | further results
1 | CCOC(=O)/C=C/[C@H](C[C@@H]1CCNC1=O)NC(=O)[C@H](Cc1ccccc1)NC(=O)c1ccc(-c2ccccc2C(F)(F)F)[nH]1 [Compound 28, 5-(2-Oxo-pyrrolidin-3S-yl)-4S-(3-phenyl-2S-{[5-(2-trifluoromethyl-phenyl)-1H-pyrrole-2-carbonyl]-amino}-propionylamino)-pent-2(trans)-enoic acid ethyl ester] | 340000 | 59 | 213 | 66 | > 1000 | > 1000 | > 1000 | – | – | – | – | – | – | – | – | – | – | – | – | – | –
2 | C#CC[C@H](NC(=O)c1ccc(-c2ccccc2C(F)(F)F)[nH]1)C(=O)N[C@H](/C=C/C(=O)OCC)C[C@@H]1CCNC1=O [Compound 29, 5-(2-Oxo-pyrrolidin-3S-yl)-4S-(2S-{[5-(2-trifluoromethyl-phenyl)-1H-pyrrole-2-carbonyl]-amino}-pent-4-ynoylamino)-pent-2(trans)-enoic acid ethyl ester] | 103000 | 150 | 54 | 27 | > 10000 | > 10000 | > 10000 | 316 | 180 | 65 | 119 | > 10000 | > 10000 | > 10000 | > 10000 | – | – | – | – | – | –
3 | C#CC[C@H](CC(=O)c1ccc(-c2ccccc2C(F)(F)F)[nH]1)C(=O)N[C@H](/C=C/C(=O)OCC)C[C@@H]1CCNC1=O [Compound 36] | – | – | 145 | 330 | > 10000 | > 10000 | > 10000 | 329 | 235 | 145 | 144 | > 10000 | > 10000 | > 10000 | > 10000 | – | – | – | – | – | –
4 | C#CC[C@H](CC(=O)c1ccc(-c2ccccc2Cl)[nH]1)C(=O)N[C@H](/C=C/C(=O)OCC)C[C@@H]1CCNC1=O [Compound 38, 4S-(2R-{2-[5-(2-Chloro-phenyl)-1H-pyrrol-2-yl]-2-oxo-ethyl}-pent-4-ynoylamino)-5-(2-oxo-pyrrolidin-3S-yl)-pent-2(trans)-enoic acid ethyl ester] | 33000 | 136 | 537 | 446 | – | – | > 10000 | 1510 | 593 | 605 | 885 | > 10000 | > 10000 | > 10000 | > 10000 | 353 | 1490 | 97 | > 10000 | > 10000 | CC50 (H1-HeLa cells; table line HRV-14): > 10000 nM; CC50 (H1-HeLa cells; table line HRV-16): > 10000 nM; CC50 (H1-HeLa cells; table line HRV-87): > 10000 nM
5 | C#CC[C@H](CC(=O)c1ccc(-c2ccccc2C)[nH]1)C(=O)N[C@H](/C=C/C(=O)OCC)C[C@@H]1CCNC1=O [Compound 39, 5-(2-Oxo-pyrrolidin-3S-yl)-4S-{2R-[2-oxo-2-(5-o-tolyl-1H-pyrrol-2-yl)-ethyl]-pent-4-ynoylamino}-pent-2(trans)-enoic acid ethyl ester] | 20100 | 214 | 338 | 428 | – | – | > 10000 | 1320 | 518 | 595 | 665 | > 10000 | > 10000 | > 10000 | > 10000 | 214 | 952 | 83 | > 10000 | > 10000 | CC50 (H1-HeLa cells; table line HRV-14): > 10000 nM; CC50 (H1-HeLa cells; table line HRV-16): > 10000 nM; CC50 (H1-HeLa cells; table line HRV-87): > 10000 nM
